Measurements: patent US20240358693A1, “METHODS OF TREATING PAIN” (Aisa Pharma, Inc., priority 2023, published 2024)

Tested on: participants with SSc-RP
Assay: Average severity of weekly RP attacks (VAS 0-10 cm scale)
Format: in vivo, human
From the text: The absolute change in average severity of weekly RP attacks (VAS 0-10 cm scale) from baseline to the end of each Dosing Period was and will be a secondary outcome variable. The sponsor-developed participant-informed diary will be used to record data. Average severity of weekly RP attacks is defined as the total severity scores of RP attacks divided by total number of RP attacks within the last 7 days of each dosing period. Total severity scores of RP attacks during the last 7 days of screening period divided by the total number of RP attacks will be used as baseline for the analysis of all periods. The variable will be calculated similar to frequency data as before.

[1] = Pooled Cilnidipine 20 mg and Cilnidipine 20 mg + Tadalafil 5 mg, n=4, Excluding Outliers, ITT Population - Part A
[2] = Pooled Cilnidipine 20 mg and Cilnidipine 20 mg + Tadalafil 5 mg, n=4, ITT Population - Part A
[3] = Pooled Cilnidipine 20 mg and Cilnidipine 20 mg + Tadalafil 5 mg, Excluding Outliers, ITT Population - Part A
[4] = Pooled Cilnidipine 20 mg and Cilnidipine 20 mg + Tadalafil 5 mg, Excluding Outliers, by Baseline RCS, first subgroup, ITT Population - Part A
[5] = Pooled Cilnidipine 20 mg and Cilnidipine 20 mg + Tadalafil 5 mg, Excluding Outliers, by Baseline RCS, second subgroup, ITT Population - Part A
[6] = Pooled Cilnidipine 20 mg and Cilnidipine 20 mg + Tadalafil 5 mg, ITT Population - Part A
[7] = Pooled Cilnidipine 20 mg and Cilnidipine 20 mg + Tadalafil 5 mg, first Baseline RCS subgroup block (not named), ITT Part A
[8] = Pooled Cilnidipine 20 mg and Cilnidipine 20 mg + Tadalafil 5 mg, first Baseline RCS subgroup block (not named), ITT Part A, score 0-10
[9] = Pooled Cilnidipine 20 mg and Cilnidipine 20 mg + Tadalafil 5 mg, second Baseline RCS subgroup block (not named), ITT Part A
[10] = Pooled Cilnidipine 20 mg and Cilnidipine 20 mg + Tadalafil 5 mg, second Baseline RCS subgroup block (not named), ITT Part A, score 0-10
[11] = Pooled Cilnidipine, n=3, Excluding Outliers, ITT Population - Part A
[12] = Pooled Cilnidipine, n=3, ITT Population - Part A
[13] = Pooled Cilnidipine, n=3, by Baseline RCS, first subgroup, ITT Population - Part A
[14] = Pooled Cilnidipine, first Baseline RCS subgroup block (not named), ITT Part A
[15] = Pooled Cilnidipine, first Baseline RCS subgroup block (not named), ITT Part A, score 0-10

## COCCOC(=O)C1=C(C)NC(C)=C(C(=O)OC/C=C/c2ccccc2)C1c1cccc([N+](=O)[O-])c1 (stereo not shown) [Cilnidipine, cilnidipine]
[1]
  Average Severity (0-10) of Weekly Symptomatic RP Attacks, Mean: 3.40
  Average Severity (0-10) of Weekly Symptomatic RP Attacks, Median: 3.18
  Average Severity of Weekly Symptomatic RP Attacks, Change from Baseline, Mean: −1.24
  Average Severity of Weekly Symptomatic RP Attacks, Change from Baseline, Median: −1.06
  Average Severity of Weekly Symptomatic RP Attacks, Percent Change from Baseline, Mean: −24.75%
  Average Severity of Weekly Symptomatic RP Attacks, Percent Change from Baseline, Median: −19.08%
[2]
  Average Severity (0-10) of Weekly Symptomatic RP Attacks, Mean: 3.40
  Average Severity (0-10) of Weekly Symptomatic RP Attacks, Median: 3.18
  Average Severity of Weekly Symptomatic RP Attacks, Change from Baseline, Mean: −1.24
  Average Severity of Weekly Symptomatic RP Attacks, Change from Baseline, Median: −1.06
  Average Severity of Weekly Symptomatic RP Attacks, Percent Change from Baseline, Mean: −24.75%
  Average Severity of Weekly Symptomatic RP Attacks, Percent Change from Baseline, Median: −19.08%
[3]
  Average Severity of Weekly RP Attacks (All Attacks), Change from Baseline, Mean: −1.02
  Average Severity of Weekly RP Attacks (All Attacks), Change from Baseline, Median: −0.96
  Average Severity of Weekly RP Attacks (All Attacks), Mean: 3.35
  Average Severity of Weekly RP Attacks (All Attacks), Median: 3.06
  Average Severity of Weekly RP Attacks (All Attacks), Percent Change from Baseline, Mean: −21.83%
  Average Severity of Weekly RP Attacks (All Attacks), Percent Change from Baseline, Median: −16.40%
[4]
  Average Severity of Weekly Symptomatic RP Attacks (Mean): 2.85
  Average Severity of Weekly Symptomatic RP Attacks (Median): 2.40
  Average Severity of Weekly Symptomatic RP Attacks, Change from Baseline, Mean: −1.06
  Average Severity of Weekly Symptomatic RP Attacks, Change from Baseline, Median: −0.33
  Average Severity of Weekly Symptomatic RP Attacks, Percent Change from Baseline, Mean: −24.28%
  Average Severity of Weekly Symptomatic RP Attacks, Percent Change from Baseline, Median: −12.02%
[5]
  Average Severity of Weekly Symptomatic RP Attacks (Mean): 5.06
  Average Severity of Weekly Symptomatic RP Attacks (Median): 5.06
  Average Severity of Weekly Symptomatic RP Attacks, Change from Baseline, Mean: −1.79
  Average Severity of Weekly Symptomatic RP Attacks, Change from Baseline, Median: −1.79
  Average Severity of Weekly Symptomatic RP Attacks, Percent Change from Baseline, Mean: −26.14%
  Average Severity of Weekly Symptomatic RP Attacks, Percent Change from Baseline, Median: −26.14%
[6]
  Average Severity of Weekly RP Attacks (All Attacks), Change from Baseline, Mean: −1.02
  Average Severity of Weekly RP Attacks (All Attacks), Change from Baseline, Median: −0.96
  Average Severity of Weekly RP Attacks (All Attacks), Mean: 3.35
  Average Severity of Weekly RP Attacks (All Attacks), Median: 3.06
  Average Severity of Weekly RP Attacks (All Attacks), Percent Change from Baseline, Mean: −21.83%
  Average Severity of Weekly RP Attacks (All Attacks), Percent Change from Baseline, Median: −16.40%
[7]
  Average Severity of Weekly RP Attacks (All Attacks), Percent Change from Baseline, Mean: −21.36%
  Average Severity of Weekly RP Attacks (All Attacks), Percent Change from Baseline, Median: −9.57%
[8]
  Average Severity of Weekly RP Attacks (All Attacks), Change from Baseline, Mean: −0.84
  Average Severity of Weekly RP Attacks (All Attacks), Change from Baseline, Median: −0.39
  Average Severity of Weekly RP Attacks (All Attacks), Mean: 2.78
  Average Severity of Weekly RP Attacks (All Attacks), Median: 2.40
[9]
  Average Severity of Weekly RP Attacks (All Attacks), Percent Change from Baseline, Mean: −23.23%
  Average Severity of Weekly RP Attacks (All Attacks), Percent Change from Baseline, Median: −23.23%
[10]
  Average Severity of Weekly RP Attacks (All Attacks), Change from Baseline, Mean: −1.53
  Average Severity of Weekly RP Attacks (All Attacks), Change from Baseline, Median: −1.53
  Average Severity of Weekly RP Attacks (All Attacks), Mean: 5.06
  Average Severity of Weekly RP Attacks (All Attacks), Median: 5.06
Pooled Cilnidipine (n = 7)
  Severity: −16%
[11]
  Average Severity (0-10) of Weekly Symptomatic RP Attacks, Mean: 2.79
  Average Severity (0-10) of Weekly Symptomatic RP Attacks, Median: 2.40
  Average Severity of Weekly Symptomatic RP Attacks, Change from Baseline, Mean: −0.87
  Average Severity of Weekly Symptomatic RP Attacks, Change from Baseline, Median: −0.33
  Average Severity of Weekly Symptomatic RP Attacks, Percent Change from Baseline, Mean: −19.22%
  Average Severity of Weekly Symptomatic RP Attacks, Percent Change from Baseline, Median: −12.02%
[12]
  Average Severity (0-10) of Weekly Symptomatic RP Attacks, Mean: 2.79
  Average Severity (0-10) of Weekly Symptomatic RP Attacks, Median: 2.40
  Average Severity of Weekly Symptomatic RP Attacks, Change from Baseline, Mean: −0.87
  Average Severity of Weekly Symptomatic RP Attacks, Change from Baseline, Median: −0.33
  Average Severity of Weekly Symptomatic RP Attacks, Percent Change from Baseline, Mean: −19.22%
  Average Severity of Weekly Symptomatic RP Attacks, Percent Change from Baseline, Median: −12.02%
[13]
  Average Severity (0-10) of Weekly Symptomatic RP Attacks, Mean: 2.79
  Average Severity (0-10) of Weekly Symptomatic RP Attacks, Median: 2.40
  Average Severity of Weekly Symptomatic RP Attacks, Change from Baseline, Mean: −0.87
  Average Severity of Weekly Symptomatic RP Attacks, Change from Baseline, Median: −0.33
  Average Severity of Weekly Symptomatic RP Attacks, Percent Change from Baseline, Mean: −19.22%
  Average Severity of Weekly Symptomatic RP Attacks, Percent Change from Baseline, Median: −12.02%
[14]
  Average Severity of Weekly RP Attacks (All Attacks), Percent Change from Baseline, Mean: −17.99%
  Average Severity of Weekly RP Attacks (All Attacks), Percent Change from Baseline, Median: −7.69%
[15]
  Average Severity of Weekly RP Attacks (All Attacks), Change from Baseline, Mean: −0.71
  Average Severity of Weekly RP Attacks (All Attacks), Change from Baseline, Median: −0.20
  Average Severity of Weekly RP Attacks (All Attacks), Mean: 2.55
  Average Severity of Weekly RP Attacks (All Attacks), Median: 2.40
